Assay results reported in article PMC5218480 (PLoS ONE, 2017).

Tested on: MV-4-11 cells
Assay: Gene expression microarray analysis (Affymetrix PrimeView) and GSEA
Format: cell-based, human
Design: RFU PODN (11730768_x_at) / Fold change /veh PODN (11730768_x_at) / RFU LINC00158 (11744669_a_at) / Fold change /veh LINC00158 (11744669_a_at) / RFU DUSP10 (11751237_a_at) / Fold change /veh DUSP10 (11751237_a_at) / RFU ID3 (11757404_x_at) / Fold change /veh ID3 (11757404_x_at) / RFU PLEKHG5 (11737974_s_at) / Fold change /veh PLEKHG5 (11737974_s_at) / RFU LRRC4B (11730491_at) / Fold change /veh LRRC4B (11730491_at) / RFU GIMAP4 (11747438_a_at) / Fold change /veh GIMAP4 (11747438_a_at) / RFU KRT8 (11758183_x_at) / Fold change /veh KRT8 (11758183_x_at) / RFU CNN1 (11734310_a_at) / Fold change /veh CNN1 (11734310_a_at) / RFU VPS37D (11726825_at) / Fold change /veh VPS37D (11726825_at) / RFU C10orf10 (11716522_x_at) / Fold change /veh C10orf10 (11716522_x_at) / RFU KIR2DL2 /// KIR2DL4 /// KIR2DL5A /// KIR2DL5B /// KIR2DS1 /// KIR2DS2 /// KIR2DS3 /// KIR2DS4 /// KIR3DL3 /// KIR3DL3 /// KIR3DS1 (11738374_at) / Fold change /veh KIR2DL2 /// KIR2DL4 /// KIR2DL5A /// KIR2DL5B /// KIR2DS1 /// KIR2DS2 /// KIR2DS3 /// KIR2DS4 /// KIR3DL3 /// KIR3DL3 /// KIR3DS1 (11738374_at) / RFU C1QL1 (11718748_at) / Fold change /veh C1QL1 (11718748_at) / RFU TMPRSS4 (11747572_a_at) / Fold change /veh TMPRSS4 (11747572_a_at) / RFU HAMP (11756126_x_at) / Fold change /veh HAMP (11756126_x_at) / RFU RNFT2 (11725882_a_at) / Fold change /veh RNFT2 (11725882_a_at) / RFU NR4A2 (11747474_a_at) / Fold change /veh NR4A2 (11747474_a_at) / RFU ABCC12 (11746883_a_at) / Fold change /veh ABCC12 (11746883_a_at) / RFU TMEM136 (11760407_x_at) / Fold change /veh TMEM136 (11760407_x_at) / RFU CLDN22 /// WWC2 (11732394_at) / Fold change /veh CLDN22 /// WWC2 (11732394_at) / RFU HLA-DPB1 (11760878_x_at) / Fold change /veh HLA-DPB1 (11760878_x_at) / RFU SPINT1 (11716480_a_at) / Fold change /veh SPINT1 (11716480_a_at) / RFU GAP43 (11754022_s_at) / Fold change /veh GAP43 (11754022_s_at) / RFU A4GNT (11735810_at) / Fold change /veh A4GNT (11735810_at) / RFU PRB3 (11715151_x_at) / Fold change /veh PRB3 (11715151_x_at) / RFU TUBB4B (11761932_at) / Fold change /veh TUBB4B (11761932_at) / RFU CAPN14 (11732068_a_at) / Fold change /veh CAPN14 (11732068_a_at) / RFU TMCC2 (11721928_a_at) / Fold change /veh TMCC2 (11721928_a_at) / RFU IRGQ (11745062_a_at) / Fold change /veh IRGQ (11745062_a_at) / RFU FAM174B (11720279_a_at) / Fold change /veh FAM174B (11720279_a_at) / RFU TMPRSS4 (11748680_a_at) / Fold change /veh TMPRSS4 (11748680_a_at) / RFU FAM212B (11763350_a_at) / Fold change /veh FAM212B (11763350_a_at) / RFU PLEKHG5 (11743358_a_at) / Fold change /veh PLEKHG5 (11743358_a_at) / RFU ZSCAN30 (11745921_a_at) / Fold change /veh ZSCAN30 (11745921_a_at) / RFU CMKLR1 (11741424_a_at) / Fold change /veh CMKLR1 (11741424_a_at) / RFU LOC101060620 /// MAPK8IP1 (11723275_at) / Fold change /veh LOC101060620 /// MAPK8IP1 (11723275_at) / RFU SPTSSB (11747773_x_at) / Fold change /veh SPTSSB (11747773_x_at) / RFU PRSS12 (11739890_at) / Fold change /veh PRSS12 (11739890_at) / RFU BIN1 (11741810_x_at) / Fold change /veh BIN1 (11741810_x_at) / RFU WNT11 (11732464_a_at) / Fold change /veh WNT11 (11732464_a_at) / RFU C10orf10 (11716521_a_at) / Fold change /veh C10orf10 (11716521_a_at) / RFU C5orf56 (11738089_at) / Fold change /veh C5orf56 (11738089_at) / RFU CYB561 (11721691_x_at) / Fold change /veh CYB561 (11721691_x_at) / RFU ANKRD19P (11752326_a_at) / Fold change /veh ANKRD19P (11752326_a_at) / RFU OR2T12 /// OR2T33 /// OR2T8 (11738714_s_at) / Fold change /veh OR2T12 /// OR2T33 /// OR2T8 (11738714_s_at) / RFU VCAN (11748164_a_at) / Fold change /veh VCAN (11748164_a_at) / RFU JSRP1 (11732532_at) / Fold change /veh JSRP1 (11732532_at) / RFU KRTAP10-11 (11738290_x_at) / Fold change /veh KRTAP10-11 (11738290_x_at) / RFU MYO3A (11730013_a_at) / Fold change /veh MYO3A (11730013_a_at) / RFU EBF3 (11725865_a_at) / Fold change /veh EBF3 (11725865_a_at) / RFU CAMK2N1 (11719241_x_at) / Fold change /veh CAMK2N1 (11719241_x_at) / RFU C5orf56 (11738088_a_at) / Fold change /veh C5orf56 (11738088_a_at) / RFU OLFML3 (11715873_a_at) / Fold change /veh OLFML3 (11715873_a_at) / RFU LOC100653217 /// NTM (11731650_a_at) / Fold change /veh LOC100653217 /// NTM (11731650_a_at) / RFU MAPK11 (11762145_a_at) / Fold change /veh MAPK11 (11762145_a_at) / RFU FIZ1 (11724087_x_at) / Fold change /veh FIZ1 (11724087_x_at) / RFU OASL (11726364_x_at) / Fold change /veh OASL (11726364_x_at) / RFU SOX15 (11748057_x_at) / Fold change /veh SOX15 (11748057_x_at) / RFU CD79A (11719716_a_at) / Fold change /veh CD79A (11719716_a_at) / RFU HIST1H1D (11736915_at) / Fold change /veh HIST1H1D (11736915_at) / RFU CASKIN2 (11723855_a_at) / Fold change /veh CASKIN2 (11723855_a_at) / RFU LOC730098 (11760151_x_at) / Fold change /veh LOC730098 (11760151_x_at) / RFU OR4N2 (11742367_at) / Fold change /veh OR4N2 (11742367_at) / RFU PRRT2 (11749266_a_at) / Fold change /veh PRRT2 (11749266_a_at) / RFU SNX32 (11753110_a_at) / Fold change /veh SNX32 (11753110_a_at) / RFU CDHR5 (11726645_a_at) / Fold change /veh CDHR5 (11726645_a_at) / RFU RCAN1 (11760418_a_at) / Fold change /veh RCAN1 (11760418_a_at) / RFU FAM167A (11723789_a_at) / Fold change /veh FAM167A (11723789_a_at) / RFU FAM26E (11764081_at) / Fold change /veh FAM26E (11764081_at) / RFU ISYNA1 (11749810_s_at) / Fold change /veh ISYNA1 (11749810_s_at) / RFU ACY1 (11761880_at) / Fold change /veh ACY1 (11761880_at) / RFU 11764098_at / Fold change /veh 11764098_at / RFU SAMD14 (11745864_x_at) / Fold change /veh SAMD14 (11745864_x_at) / RFU NPB (11741838_a_at) / Fold change /veh NPB (11741838_a_at) / RFU TMPRSS6 (11731388_a_at) / Fold change /veh TMPRSS6 (11731388_a_at) / RFU KRTAP10-2 (11738614_at) / Fold change /veh KRTAP10-2 (11738614_at) / RFU ARHGAP8 /// PRR5-ARHGAP8 (11727945_x_at) / Fold change /veh ARHGAP8 /// PRR5-ARHGAP8 (11727945_x_at) / RFU KRTAP5-7 /// NADSYN1 (11734609_at) / Fold change /veh KRTAP5-7 /// NADSYN1 (11734609_at) / RFU RASL12 (11751679_a_at) / Fold change /veh RASL12 (11751679_a_at) / RFU CDKN2B (11736163_a_at) / Fold change /veh CDKN2B (11736163_a_at) / RFU PRF1 (11729649_at) / Fold change /veh PRF1 (11729649_at) / RFU, ZNF638 /// ZNF638-IT1 / Fold change vs veh, ZNF638 /// ZNF638-IT1 / RFU, PANK3 / Fold change vs veh, PANK3 / RFU, SH3YL1 / Fold change vs veh, SH3YL1 / RFU, ZEB2 / Fold change vs veh, ZEB2 / RFU, NRIP1 / Fold change vs veh, NRIP1 / RFU, PTTG1IP / Fold change vs veh, PTTG1IP / RFU, CAPN2 / Fold change vs veh, CAPN2 / RFU, MED14 / Fold change vs veh, MED14 / RFU, SNORA58 / Fold change vs veh, SNORA58 / RFU, C1orf63 / Fold change vs veh, C1orf63 / RFU, LRRFIP1 / Fold change vs veh, LRRFIP1 / RFU, NDUFAF7 / Fold change vs veh, NDUFAF7 / RFU, SLC12A2 / Fold change vs veh, SLC12A2 / RFU, IBTK / Fold change vs veh, IBTK / RFU, ESF1 / Fold change vs veh, ESF1 / Fold change vs veh, TMEM50B / RFU, TAOK1 / Fold change vs veh, TAOK1 / RFU, ACBD3 / Fold change vs veh, ACBD3 / RFU, TMA16 / Fold change vs veh, TMA16 / RFU, RWDD3 / Fold change vs veh, RWDD3 / RFU, BCAT1 / Fold change vs veh, BCAT1 / RFU, EDEM3 / Fold change vs veh, EDEM3 / RFU, TMEM33 / Fold change vs veh, TMEM33 / RFU, WDR75 / Fold change vs veh, WDR75 / RFU, AHCTF1 / Fold change vs veh, AHCTF1 / RFU, TFRC / Fold change vs veh, TFRC / RFU, ZDHHC17 / Fold change vs veh, ZDHHC17 / RFU, NOM1 / Fold change vs veh, NOM1 / RFU, ARL8B / Fold change vs veh, ARL8B / RFU, ZBTB11 / Fold change vs veh, ZBTB11 / RFU, TAMM41 / Fold change vs veh, TAMM41 / RFU, KIAA1704 /// LOC100996395 / Fold change vs veh, KIAA1704 /// LOC100996395 / RFU, ING1 / Fold change vs veh, ING1 / RFU, TRMT61B / Fold change vs veh, TRMT61B / RFU, FUBP3 / Fold change vs veh, FUBP3 / RFU, TP53 / Fold change vs veh, TP53 / RFU, TNKS2 / Fold change vs veh, TNKS2 / RFU, ZFP14 / Fold change vs veh, ZFP14 / RFU, ACTR2 / Fold change vs veh, ACTR2 / RFU, PPP3R1 / Fold change vs veh, PPP3R1 / RFU, PIK3R1 / Fold change vs veh, PIK3R1 / RFU, HNRNPA1 / Fold change vs veh, HNRNPA1 / RFU, RNF170 / Fold change vs veh, RNF170 / RFU, ZNF28 / Fold change vs veh, ZNF28 / RFU, RNGTT / Fold change vs veh, RNGTT / RFU, OGT / Fold change vs veh, OGT / RFU, BRD1 / Fold change vs veh, BRD1 / RFU, MARS / Fold change vs veh, MARS / RFU, ZNF655 / Fold change vs veh, ZNF655 / RFU, FAHD1 / Fold change vs veh, FAHD1 / RFU, BDP1 / Fold change vs veh, BDP1 / RFU, LRRCC1 / Fold change vs veh, LRRCC1 / RFU, ARID1A / Fold change vs veh, ARID1A / RFU, ZNF146 / Fold change vs veh, ZNF146 / RFU, ZNF330 / Fold change vs veh, ZNF330 / RFU, GPN3 / Fold change vs veh, GPN3 / RFU, C9orf123 / Fold change vs veh, C9orf123 / RFU, N4BP2L2 / Fold change vs veh, N4BP2L2 / RFU, ARFIP1 / Fold change vs veh, ARFIP1 / RFU, FAM179B / Fold change vs veh, FAM179B / RFU, BCL10 / Fold change vs veh, BCL10 / RFU, UHRF1BP1L / Fold change vs veh, UHRF1BP1L / RFU, BET1 / Fold change vs veh, BET1 / RFU, CNOT2 / Fold change vs veh, CNOT2 / RFU, ZNF268 / Fold change vs veh, ZNF268 / Fold change vs veh, ZNF507 / RFU, DGCR2 / Fold change vs veh, DGCR2 / RFU, WDSUB1 / Fold change vs veh, WDSUB1 / Fold change vs veh, HSP90B1 /// MIR3652 / RFU, ADSS / Fold change vs veh, ADSS / RFU, GK / Fold change vs veh, GK / RFU, ZNF148 / Fold change vs veh, ZNF148 / RFU, TAF9 / Fold change vs veh, TAF9 / RFU, SLC1A5 / Fold change vs veh, SLC1A5 / RFU, SLMO2 / Fold change vs veh, SLMO2 / RFU, ABCC4 / Fold change vs veh, ABCC4 / RFU, LOC101060439 /// RAP1B / Fold change vs veh, LOC101060439 /// RAP1B / RFU, RFX7 / Fold change vs veh, RFX7 / RFU, GTPBP10 / Fold change vs veh, GTPBP10 / RFU, CNEP1R1 / Fold change vs veh, CNEP1R1 / RFU, BIVM-ERCC5 /// ERCC5 / Fold change vs veh, BIVM-ERCC5 /// ERCC5 / RFU, ILF3 / Fold change vs veh, ILF3 / RFU 11762660_at / Fold change /veh 11762660_at / RFU VCAN (11757783_s_at) / Fold change /veh VCAN (11757783_s_at) / RFU DDX43 (11728927_at) / Fold change /veh DDX43 (11728927_at) / RFU KRT8 (11758188_x_at) / Fold change /veh KRT8 (11758188_x_at) / RFU NKD1 (11759106_at) / Fold change /veh NKD1 (11759106_at) / RFU SRD5A1 (11742802_a_at) / Fold change /veh SRD5A1 (11742802_a_at) / RFU TPSAB1 /// TPSB2 (11721975_s_at) / Fold change /veh TPSAB1 /// TPSB2 (11721975_s_at) / RFU GSTM3 (11746129_a_at) / Fold change /veh GSTM3 (11746129_a_at) / RFU IL23R (11737362_x_at) / Fold change /veh IL23R (11737362_x_at) / RFU TMEM51 (11727254_a_at) / Fold change /veh TMEM51 (11727254_a_at) / RFU PIWIL2 (11732686_x_at) / Fold change /veh PIWIL2 (11732686_x_at) / RFU ORM1 (11744905_x_at) / Fold change /veh ORM1 (11744905_x_at) / RFU CCDC152 (11743942_at) / Fold change /veh CCDC152 (11743942_at) / RFU ECM1 (11717891_a_at) / Fold change /veh ECM1 (11717891_a_at) / RFU IL23R (11748794_a_at) / Fold change /veh IL23R (11748794_a_at) / RFU TNFAIP8L3 (11732012_x_at) / Fold change /veh TNFAIP8L3 (11732012_x_at) / RFU MBOAT4 (11741988_at) / Fold change /veh MBOAT4 (11741988_at) / RFU 11764193_at / Fold change /veh 11764193_at / RFU TMEM53 (11763286_at) / Fold change /veh TMEM53 (11763286_at) / RFU MAGEB2 (11727129_at) / Fold change /veh MAGEB2 (11727129_at) / RFU TMEM200A (11744735_a_at) / Fold change /veh TMEM200A (11744735_a_at) / RFU CCDC152 (11751479_a_at) / Fold change /veh CCDC152 (11751479_a_at) / RFU FAM211A (11726209_a_at) / Fold change /veh FAM211A (11726209_a_at) / RFU RGS16 (11746705_a_at) / Fold change /veh RGS16 (11746705_a_at) / RFU VCAN (11755009_s_at) / Fold change /veh VCAN (11755009_s_at) / RFU RHOB (11743442_s_at) / Fold change /veh RHOB (11743442_s_at) / RFU RGS16 (11720943_a_at) / Fold change /veh RGS16 (11720943_a_at) / RFU RGS16 (11720944_at) / Fold change /veh RGS16 (11720944_at) / RFU, VPS4B / Fold change vs veh, VPS4B / RFU, CREB1 / Fold change vs veh, CREB1 / RFU, DNAJC13 / Fold change vs veh, DNAJC13 / RFU, GNAQ / Fold change vs veh, GNAQ / RFU, CDK5R1 / Fold change vs veh, CDK5R1 / RFU, ZRANB3 / Fold change vs veh, ZRANB3 / RFU, CUL4A / Fold change vs veh, CUL4A / RFU, CCNY / Fold change vs veh, CCNY / RFU, UFL1 / Fold change vs veh, UFL1 / RFU, COG3 / Fold change vs veh, COG3 / RFU, DIAPH2 / Fold change vs veh, DIAPH2 / RFU, SKA2 / Fold change vs veh, SKA2 / RFU, AFF3 / Fold change vs veh, AFF3 / RFU, LMF1 / Fold change vs veh, LMF1 / RFU, IPO11 / Fold change vs veh, IPO11 / RFU, DFFB / Fold change vs veh, DFFB / RFU, FOXP1 / Fold change vs veh, FOXP1 / RFU, CARD8 / Fold change vs veh, CARD8 / RFU, STRN3 / Fold change vs veh, STRN3 / RFU, ADK / Fold change vs veh, ADK / RFU, RASSF2 / Fold change vs veh, RASSF2 / RFU, WIPF1 / Fold change vs veh, WIPF1 / RFU, LARP1B / Fold change vs veh, LARP1B / RFU, RASA1 / Fold change vs veh, RASA1 / RFU, RB1 / Fold change vs veh, RB1 / RFU, PPFIA1 / Fold change vs veh, PPFIA1 / RFU, MAT2A / Fold change vs veh, MAT2A / RFU, CCT5 / Fold change vs veh, CCT5 / RFU, WDR92 / Fold change vs veh, WDR92 / RFU, CUX1 / Fold change vs veh, CUX1 / RFU, TTC7A / Fold change vs veh, TTC7A / RFU, TMEM135 / Fold change vs veh, TMEM135 / RFU, DEPTOR / Fold change vs veh, DEPTOR / RFU, CPM / Fold change vs veh, CPM / RFU, DNAJB6 / Fold change vs veh, DNAJB6 / RFU, CACNA2D3 / Fold change vs veh, CACNA2D3 / RFU, DTX4 / Fold change vs veh, DTX4 / RFU, TFCP2 / Fold change vs veh, TFCP2 / RFU, GMCL1 /// GMCL1P1 / Fold change vs veh, GMCL1 /// GMCL1P1 / RFU, AEBP2 / Fold change vs veh, AEBP2 / RFU, SNHG1 /// SNORD22 /// SNORD25 /// SNORD26 /// SNORD27 /// SNORD28 /// SNORD29 /// SNORD31 / Fold change vs veh, SNHG1 /// SNORD22 /// SNORD25 /// SNORD26 /// SNORD27 /// SNORD28 /// SNORD29 /// SNORD31 / Fold change (Aza/veh), C12orf56 (ProbeSet 11735607_a_at) / Fold change (ACY-1035/veh), C12orf56 (ProbeSet 11735607_a_at) / Fold change (Aza/veh), FGFR1OP (ProbeSet 11751329_s_at) / Fold change (ACY-1035/veh), FGFR1OP (ProbeSet 11751329_s_at) / Fold change (Aza/veh), VPS36 (ProbeSet 11739960_a_at) / Fold change (ACY-1035/veh), VPS36 (ProbeSet 11739960_a_at) / RFU SYPL1 (11715823_x_at) / Fold change /veh SYPL1 (11715823_x_at) / RFU IGFBP7 (11715501_s_at) / Fold change /veh IGFBP7 (11715501_s_at) / RFU REEP3 (11722064_at) / Fold change /veh REEP3 (11722064_at) / RFU IGLL1 (11728026_x_at) / Fold change /veh IGLL1 (11728026_x_at): dose or concentration left out as unconfirmed
Details: MV-4-11 cells, 48 hours

In the case of `Nc1ncn([C@@H]2O[C@H](CO)[C@@H](O)[C@H]2O)c(=O)n1` [azacitidine], the “RFU PLEKHG5 (11737974_s_at)” value is reported as 50.98 RFU.
